According to patent US9868707B2, “Small molecule agonists of neurotensin receptor 1” (SANFORD-BURNHAM MEDICAL RESEARCH INSTITUTE, priority 2012, dated 2018):
“And” between values parts separate entries of the source, which are not always exact repeats. Identical values can stand only once.

Columns and labels:
Assay type in all cases: cell-based
[1] = system: Fa2N-4 immortalized human hepatocytes; assay: Cell viability with ATP-lite (hepatic toxicity)
Experimental: Hepatic toxicity of compounds was determined with Fa2N-4 immortalized human hepatocytes using the ATP-lite 1-step assay (Perkin Elmer). assay according to the manufacturer's instructions. Fa2N-4 cells (XenoTech, Kansas City, Kans.) were seeded at 50,000 cells/well, and incubated with a range of concentrations of the test compound (0.01 μM-50 μM) in MFE support, media for 24 hrs at 37° C., 5% CO2. At the end of the experiment, cell viability was determined by cellular ATP levels using the ATP-lite kit according to the manufacturer's instructions Luminescence was measured on the Infinite M200 plate reader (Tecan US).

NTSR1 (NTR1) = molecular target: T1, NTSR1 (NTR1) (Homo sapiens, UniProt P30989); assay: NTR1 β-Arrestin dose response (DiscoveRx PathHunter, CHO-K1)
T1 construct: host or cells: CHO-K1
T1 sequence (P30989 whole entry): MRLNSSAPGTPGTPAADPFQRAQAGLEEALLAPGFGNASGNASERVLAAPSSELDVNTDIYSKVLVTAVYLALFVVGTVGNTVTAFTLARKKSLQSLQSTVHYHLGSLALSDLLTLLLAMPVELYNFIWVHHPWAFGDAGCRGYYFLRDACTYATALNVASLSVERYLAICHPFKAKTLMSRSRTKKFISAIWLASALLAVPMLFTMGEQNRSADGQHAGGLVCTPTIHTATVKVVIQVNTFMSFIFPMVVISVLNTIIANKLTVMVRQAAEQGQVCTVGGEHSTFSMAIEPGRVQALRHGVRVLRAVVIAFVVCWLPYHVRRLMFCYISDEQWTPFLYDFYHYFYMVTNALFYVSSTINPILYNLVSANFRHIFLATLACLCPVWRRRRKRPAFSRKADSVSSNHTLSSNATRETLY
Experimental: The NTR1 β-Arrestin assays were performed using a PathHunter™ eXpress kit (93-0446E2) which contained the NTSR1 (NTR1) CHO cell line, OCC2 media (30-409), as well as the PathHunter Detection Reagents (93-0446E2). The kit was obtained from DiscoveRx (Fremont, Calif.). The assay employed the same neurotensin 1 peptide as a control as was used in the NTR1 primary assay. The assay was run in 1536-well, white, solid-bottom tissue culture plates (3727) from Corning.
On day one of the assay, 5 uL of a cell suspension containing 120,000 NTSR1 (NTR1) CHO-K1 cells per mL in OCC2 media is added to each well of a 1536-well assay plate using a Multidrop Combi. The assay plates are then incubated for 48 hours at 37° C., under 5% CO2. Following the two day incubation, a volume of 20, 10, and 5 nL of 10 and 1.2 mM test compounds in DMSO were transferred from source wells to test compound wells in assay plates with a LabCyte Echo to achieve final assay concentrations ranging from 33 to 1.03 uM for each test sample. Test compound wells and control wells were backfilled with DMSO to achieve a final volume of DMSO of 20 nL or a final assay concentration of 0.33%. […] Plates are again centrifuged as previously described then incubated at room temperature for 1 hour before being read on the PerkinElmer using a luminescent protocol.

NTR1 = NTR1 (Homo sapiens, UniProt P30989); assay: NTR1 high-content imaging (HCS) dose response, NTR1-U2OS cells; design: host or cells: U2OS osteosarcoma; details: n = 4 unless otherwise noted
Sequence of NTR1 (P30989 whole entry, species assumed): as the sequence (P30989 whole entry) above
Source text: The cell lines utilized in the high-content imaging assays, which include the NTR1-, NTR2-, and GPR35-U2OS osteosarcomas, were obtained from the laboratory of Dr. Lawrence Barak at the Duke University Medical Center. The media used in the culture of the cell lines, as well as the assays themselves, consisted of Minimum Essential Medium (15-010-CM) and L-glutamine (25-005-CL) from Cellgro/Mediatech (Manassas, Va.), fetal bovine serum (SH30396.03) from Hyclone (Logan, Utah), penicillin-streptomycin solution (PS-20) from Omega Scientific in Tarzana, Calif., G418 (ant-gn-1) from Invivogen (San Diego, Calif.), and zeocin (R250-01) from Invitrogen (Carlsbad, Calif.). Cell lines were cultured in T225 tissue culture flasks (431082) supplied by Corning (Corning, N.Y.). Additional reagents employed include Dulbecco's Phosphate-Buffered Saline (DPBS) (21-031CV) from Cellgro/Mediatech, Trypsin-EDTA 0.05% (25300) from Invitrogen, paraformaldehyde (30528954) from Acros Organics (Geel, Belgium), Hoechst 33342 (H3570) from Invitrogen. The high-content assays were run in 1536-well plates (29326) supplied by Aurora Biotechnology (Poway, Calif.) and utilized aluminum plate seals (T592100) from E&K Scientific (Santa Clara, Calif.).
The neurotensin 1 peptide (N6383) from Sigma-Aldrich (St. Louis, Mo.) was used as a positive control in the NTR1 primary HCS assay. For the NTR2 selectivity assay, the non-specific, small molecule 3-(4-fluorophenyl)-7,8-dimethoxy-5-(4-methylbenzyl)-5H-pyrazolo[4,3-c]quinolone which was synthesized internally was used as a positive control. The GPR35 selectivity screen utilized zaprinast (ALX430-020-M010) from Alexis Biochemicals (Farmingdale, N.Y.) as a control.
The high-content imaging based NTR1 primary screen in 1536-well format was utilized to assay the MLSMR library of chemical entities in the following manner. On day one, 4 uL of a cell suspension containing 350,000 NTR1-U2OS cells per mL is added to each well of a 1536-well assay plate. Cells are plated in MEM medium containing 2.5% Fetal Bovine Serum, 1% Penicillin/Streptomycin solution, 1% L-Glutamine, 400 ug/mL G418, and 200 ug/mL Zeocin. The assay plates are then incubated overnight at 37° C., under 5% CO2. Following the overnight incubation, a volume of 60 nL of the compounds at 2 mM in DMSO (final 20 μM, 1% DMSO) was transferred to columns 5-48 of the assay plates using a LabCyte Echo Liquid Handler. Next, 60 nL of DMSO were dispensed to columns 1-4, which served as the positive and neutral control wells. […] The assay plates were centrifuged on an Eppendorf 5810 centrifuge at 1000 rpm for 1 min to ensure even liquid levels in the wells of the assay plates. The assay plates were then returned to the incubator for 1 hour. Following the hour-long incubation at 37° C., the cells in each well were fixed with 4 uL of 6% paraformaldehyde added with a Multidrop Combi. The assay plates were centrifuged as before and incubated at room temperature for 1 hour. On the Kalypsys, plates were then aspirated down to 2.5 uL per well and washed twice with 11 uL per well of DPBS, followed by a final aspiration to 2.5 uL per well. On the Combi dispenser, 5 uL of 5 ug/mL Hoechst 33342 diluted in DPBS was added to each well of assay plates. The plates were again centrifuged as previously described, sealed, and incubated for at least 1 hour prior to being loaded on a PerkinElmer Opera QEHS.
Image acquisition was performed with a 45 plate capacity loader/stacker and the following settings: 40×0.6 NA air objective, acquisition camera set to 2-by-2 binning for an image size of 688 by 512 pixels, beta-arrestin-GFP acquired using 488 nm laser excitation and 540/75 nm emission filters, DAPI (nuclei) using 365 nm Xenon lamp excitation and 450/50 nm emission filters, 3 fields per well. Image analysis was performed using the Acapella Spot Detection Algorithm. For analysis settings and the metrics employed in the data analyses, please refer to supplemental information.

COc1cc2nc(C3CC3)nc(N3CCN(c4ccccc4OC)CC3)c2cc1OC [Compound 315, 2-cyclopropyl-6,7-dimethoxy-4-(4-(2-methoxyphenyl)piperazin-1-yl)quinazoline]
window for toxicity towards human hepatocytes [1]: > 15 fold
CC50 ([1]; 24 hrs, read-out: Toxicity Towards Fa2N-4 Immortalized Human Hepatocytes LC50): 30 µM and 29.6 µM
EC50 (NTSR1 (NTR1)): 3.41 µM
EC50 (NTR1; Ave. ± S.E.M., read-out: HCS NTR1 Potency EC50): 2 ± 0.1 µM
Emax (NTR1; read-out: HCS NTR1 Potency Emax): 105%
